Legend:
[1] = system: His-tagged TAdV-3 fibre head protein; experiment: Glycan microarray binding assay; parameters: species or system turkey adenovirus 3 (TAdV-3); details: for inhibition of fibre head binding to the glycan microarray: in the presence of 100 mM sugar; for fluorescence intensity on glycan microarray: binding threshold approximately 1,600 RFU (five times background)
Method: The proteins were profiled on neoglycoconjugate microarrays to identify potential glycan ligands for TAdV-3 fibre head proteins. The microarrays were constructed as previously described and presented 71 different simple to complex glycans on glycoproteins or attached to protein backbones through linkers (S1 Table). Several viral protein concentrations were titrated in Tris-buffered saline supplemented with Ca^2+ and Mg^2+ ions (TBS; 20 mM Tris-HCl, 100 mM NaCl, 1 mM CaCl2, 1 mM MgCl2, pH 7.2) and with 0.05% Tween 20 (TBS-T). It was determined that 10 μg/ml in TBS-T was the concentration for optimal signal to noise ratio. Similarly, the concentration of the anti-6XHis IgG-CF640R (Sigma Aldrich, Tres Cantos, Spain) monoclonal antibody for detection of viral protein binding was optimized and a 1 in 750 dilution in TBS-T was subsequently used.
Two-step incubations were carried out as previously described with minor modifications. First, the viral proteins were incubated on the microarray slides for 1 h at 23°C and 4 rpm. The microarray slides and gaskets were then separated while submerged under TBS-T, washed 3 times in TBS-T for 2 min each with gentle agitation in a Coplin jar, with a final 2 min wash in TBS. After centrifuging to dry the slides (1,500 rpm, 5 min), all subsequent steps were carried out in the dark. The microarray slides were incubated with the fluorescently labelled anti-6XHis IgG as in the first step, washed and dried by centrifugation and scanned immediately on an Agilent G2505 microarray scanner using the Cy5 channel (633 nm excitation, 80% PMT, 5 mm resolution). All experiments were carried out in triplicate and binding inhibition assays were performed in parallel in the presence of 100 mM galactose and lactose to verify specific binding. Data extraction and analysis was carried out as previously described. Binding was taken as above an experimental threshold of five times the background, which was approximately 1,600 relative fluorescence units (RFU) in this case.

[2] = biological target: T1, TAdV-3 fibre head (virulent) (Turkey adenovirus 3, UniProt Q9YUQ4); experiment: Isothermal titration calorimetry (ITC), virulent fibre head; type: binding, turkey adenovirus 3 (TAdV-3); details: 25°C
T1 sequence (Q9YUQ4 304-454): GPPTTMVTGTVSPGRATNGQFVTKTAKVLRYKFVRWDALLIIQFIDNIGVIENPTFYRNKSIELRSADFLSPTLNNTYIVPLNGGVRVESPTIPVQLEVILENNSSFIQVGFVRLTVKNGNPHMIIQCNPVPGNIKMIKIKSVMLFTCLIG
Method: (§1) Isothermal titration calorimetry (ITC) was performed at 25°C with a Microcal VP-ITC microcalorimeter (GE Healthcare, Madrid, Spain). The proteins were exhaustively dialyzed against the appropriate buffer (10 mM MES-NaOH pH 6.0 or 20 mM Tris-HCl, 100 mM NaCl pH 7.2), and sialyllactose solutions were prepared in the final dialysate. Titrations were performed by stepwise injections of the 3'- or 6'-sialyllactose-containing solution (21–40 mM) into the reaction cell loaded with the protein at concentrations of 78–474 μM. When required, a second set of injections followed the first one after refilling the injection pipette with the same sialyllactose solution. The CONCAT32 (GE Healthcare) program was used to concatenate the raw data of both series. The heat of ligand dilution was determined separately and subtracted from the total heat produced following each injection. Protein concentrations were determined spectrophotometrically at 280 nm using the predicted monomeric molar extinction coefficient (10,095 OD cm^-1 M^-1). Titration data were analyzed with the ORIGIN software (GE Healthcare).

[3] = biological target: TAdV-3 fiber head mutant K439A (avirulent context) (Turkey adenovirus 3, UniProt A0ABF7PFF5, K439A); experiment: biochemical; type: binding, turkey adenovirus 3 (TAdV-3)
[4] = system: avirulent TAdV-3 fibre head; experiment: Saturation transfer difference NMR (STD-NMR), avirulent variant; type: binding, turkey adenovirus 3 (TAdV-3); details: 1.5 mM ligand, 15 μM protein, phosphate pH 7.7, 298 K
Method: (§2) Saturation transfer difference nuclear magnetic resonance spectroscopy (STD-NMR) experiments were performed at 298 K in an AVANCE 500 MHz spectrometer (Bruker, Rivas Vaciamadrid, Spain) equipped with a 5 mm inverse probe head. STD experiments were performed in fully deuterated 10 mM potassium phosphate pH 7.7. Samples contained 1.5 mM of either 3'- or 6'-sialyllactose and 15 μM of either the virulent or the avirulent versions of TAdV-3 fibre head. The protein was saturated on-resonance at 0.5 ppm and off-resonance at 100 ppm with a train of Gaussian-shaped pulses of 50 ms each, totalling an irradiation time of 2 s. A T2 relaxation filter consisting of a 15 ms 5 kHz spin-lock was used to reduce the protein background signals. STD spectra were obtained by subtracting the on-resonance spectra from the off-resonance spectra. STD intensities were measured comparing each STD spectrum with the correspondent off-resonance spectrum and normalizing to the ligand peak receiving the highest degree of saturation (in all cases, the 5''-N-acetyl). The resonances of 3'- or 6'-sialyllactose were assigned by standard procedures (^1H-^1H TOCSY 70 ms, ^1H-^1H ROESY 600 ms and phase-sensitive ^1H-^13C HSQC). Data were analyzed with TOPSPIN (Bruker) and figures were made with MESTRENOVA (Mestrelab Research, Santiago de Compostela, Spain).

[5] = biological target: TAdV-3 fiber head mutant N407A (avirulent context) (Turkey adenovirus 3, UniProt A0ABF7PFF5, N407A); experiment: biochemical; type: binding, turkey adenovirus 3 (TAdV-3)
[6] = biological target: TAdV-3 fiber head mutant K421A (avirulent context); details: ITC, 25°C, pH 6.0; n.o. = no binding observed
[7] = system: virulent TAdV-3 fibre head; experiment: Saturation transfer difference NMR (STD-NMR), virulent variant; type: binding, turkey adenovirus 3 (TAdV-3); details: 1.5 mM ligand, 15 μM protein, phosphate pH 7.7, 298 K
Method: as §2

[8] = biological target: TAdV-3 fiber head mutant R368A (avirulent context) (Turkey adenovirus 3, UniProt A0ABF7PFF5, R368A); experiment: biochemical; type: binding, turkey adenovirus 3 (TAdV-3)
[9] = biological target: TAdV-3 fiber head mutant E392A (avirulent context) (Turkey adenovirus 3, UniProt A0ABF7PFF5, E392A); experiment: biochemical; type: binding, turkey adenovirus 3 (TAdV-3)
[10] = biological target: TAdV-3 fibre head (avirulent) (Turkey adenovirus 3, UniProt A0ABF7PFF5); experiment: Isothermal titration calorimetry (ITC), avirulent fibre head; type: binding, turkey adenovirus 3 (TAdV-3); details: 25°C
Method: as §1

[11] = 10 μg/ml protein in TBS-T pH 7.2
[12] = pH 6.0, three independent sites per trimer

| Compound | inhibition of fibre head binding to the glycan microarray [1] | fluorescence intensity on glycan microarray [1, 11] | Kd [2, 12] | Kd ([2]; pH 7.2) | STD-NMR interaction (saturation transfer) [4] | STD-NMR interaction (saturation transfer) [7] | Kd [10, 12] | Kd ([10]; pH 7.2) | other results |
| --- | --- | --- | --- | --- | --- | --- | --- | --- | --- |
| OC[C@H]1O[C@@H](O[C@H]2[C@H](O)[C@@H](O)C(O)O[C@@H]2CO)[C@H](O)[C@@H](O)[C@H]1O (mixture of isomers) [lactose] | No binding inhibition |  |  |  |  |  |  |  |  |
| CC(=O)NC1C(O)CC(OC2C(O)C(CO)OC(OC3C(CO)OC(O)C(O)C3O)C2O)(C(=O)O)OC1C(O)C(O)CO (stereo not shown) [3'-sialyllactose] |  | 5,000 RFU | 5.5 ± 0.1 mM | ~37 mM | saturation transfer was observed | saturation transfer was observed | 3.64 ± 0.01 mM | ~24 mM | - ΔH ([2]; pH 6.0): 1.83 ± 0.03 kcal/mol of sites; - ΔS ([2]; pH 6.0): -4.19 ± 0.07 cal/mol of sites/deg; Kd [3]: 3.2 ± 0.2 mM; - ΔH ([3]; ITC, 25°C, pH 6.0): 3.9 ± 0.1 kcal/mol of sites; - ΔS ([3]; ITC, 25°C, pH 6.0): 1.7 ± 0.2 cal/mol of sites/deg; Kd [5]: 2.77 ± 0.04 mM; - ΔH ([5]; ITC, 25°C, pH 6.0): 4.66 ± 0.04 kcal/mol of sites; - ΔS ([5]; ITC, 25°C, pH 6.0): 3.9 ± 0.1 cal/mol of sites/deg; Kd [6]: n.o. ^d; Kd [8]: 3.23 ± 0.03 mM; - ΔH ([8]; ITC, 25°C, pH 6.0): 3.86 ± 0.02 kcal/mol of sites; - ΔS ([8]; ITC, 25°C, pH 6.0): 1.54 ± 0.05 cal/mol of sites/deg; Kd [9]: ~20 mM; - ΔH ([10]; pH 6.0): 4.43 ± 0.01 kcal/mol of sites; - ΔS ([10]; pH 6.0): 3.70 ± 0.03 cal/mol of sites/deg |
| CC(=O)NC1C(O)CC(OCC2OC(OC3C(CO)OC(O)C(O)C3O)C(O)C(O)C2O)(C(=O)O)OC1C(O)C(O)CO (stereo not shown) [6'-sialyllactose] |  | 6,100 RFU | ~20 mM | ~28 mM | saturation transfer was observed | saturation transfer was observed | ~7 mM | ~23 mM |  |
| O=C[C@H](O)[C@@H](O)[C@@H](O)[C@H](O)CO [galactose] | No binding inhibition |  |  |  |  |  |  |  |  |
| O=C[C@H](O)[C@@H](O)[C@H](O)CO [xylose] |  |  |  |  | no interaction with the proteins could be measured | no interaction with the proteins could be measured |  |  |  |
| transferrin: glycoprotein with 3'- and 6'-sialyl-N-acetyllactosamine terminal structures |  |  |  |  |  |  |  |  | binding on glycan microarray (in words) ([1]; 10 μg/ml protein in TBS-T pH 7.2, threshold five times background): did not bind |
